These results are taken from PubChem BioAssay (NCI).

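Results reflect a 48-hour exposure of cells in 96-well plates to compound at five concentrations. GI50: concentration for 50% inhibition of growth. At the TGI there is no net growth.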 Bounds are passed on as bounds.

Some test systems named below: K-562 leukemia; MOLT-4 leukemia; NCI-H522 lung; SK-OV-3 ovarian; UACC-62 melanoma; KM12 colon; ACHN renal; UO-31 renal; SF-295 CNS; LOX IMVI melanoma.
Experiment in all cases: NCI anticancer screen, dose series, 48 h

Take `Fc1ccc(CNc2c3ccccc3nc3ccccc23)cc1`: the GI50 with K-562 leukemia is 2.49 µM; with MOLT-4 leukemia it was 2.9 µM; in the assay with NCI-H522 lung it was 1660 nM; in the assay with SK-OV-3 ovarian, 2.56 µM; in the assay on UACC-62 melanoma it was 2580 nM; in the assay on KM12 colon, 3.27 µM. Moreover, the GI50 with ACHN renal is 1.93 µM; in the assay on UO-31 renal, 1200 nM; with SF-295 CNS, 2.9 µM; in the assay on LOX IMVI melanoma it was 1.55 µM. Further, the TGI is 16.2 µM in the assay with K-562 leukemia; 10.8 µM with MOLT-4 leukemia; 4.24 µM in the assay with NCI-H522 lung; 10.1 µM in the assay on SK-OV-3 ovarian; 9.13 µM in the assay with UACC-62 melanoma; 13.6 µM in the assay with KM12 colon. Further, the TGI is 5.64 µM with ACHN renal, 4.14 µM with UO-31 renal, 11.1 µM with SF-295 CNS and 3.07 µM with LOX IMVI melanoma.

Take `O=C(O)c1cc(N/C=C2\C(=O)c3ccccc3OC2O)ccc1O` (stereo not given): the GI50 with K-562 leukemia was 13.3 µg/mL; in the assay on MOLT-4 leukemia, 15.3 µg/mL; with NCI-H522 lung, 34.3 µg/mL; in the assay on SK-OV-3 ovarian, 29.3 µg/mL; in the assay with UACC-62 melanoma, 15.6 µg/mL; with KM12 colon, 25.7 µg/mL. The GI50 in the assay with ACHN renal is 28.3 µg/mL; in the assay on UO-31 renal, 10.1 µg/mL; with SF-295 CNS, 18.1 µg/mL; in the assay with LOX IMVI melanoma, 24.7 µg/mL. Further, the TGI with K-562 leukemia was 72.1 µg/mL; in the assay on MOLT-4 leukemia, 72 µg/mL; in the assay with NCI-H522 lung, 72.7 µg/mL; in the assay on SK-OV-3 ovarian, 75.1 µg/mL; in the assay on UACC-62 melanoma, 62.8 µg/mL; in the assay with KM12 colon, 51.6 µg/mL. The TGI came to 82.7 µg/mL in the assay on ACHN renal, 46.2 µg/mL in the assay on UO-31 renal, 52.8 µg/mL in the assay on SF-295 CNS and 80.9 µg/mL in the assay with LOX IMVI melanoma.

With `O=S(=O)(O)c1ccc(Cl)cc1.[Cd]`, the GI50 was 37.5 µM in the assay on K-562 leukemia; 79.2 µM in the assay with MOLT-4 leukemia; 1990 nM with NCI-H522 lung; greater than 100 µM in the assay with SK-OV-3 ovarian; 13800 nM with UACC-62 melanoma; 73.4 µM with KM12 colon. Further, the GI50 is greater than 100 µM with ACHN renal, greater than 100000 nM in the assay with UO-31 renal, greater than 100 µM in the assay on SF-295 CNS and greater than 100 µM with LOX IMVI melanoma. In addition, the TGI was greater than 100 µM in the assay with K-562 leukemia; greater than 100 µM with MOLT-4 leukemia; 6.79 µM with NCI-H522 lung; greater than 100 µM with SK-OV-3 ovarian; 28 µM with UACC-62 melanoma; greater than 100 µM with KM12 colon. Also, the TGI in the assay with ACHN renal, in the assay with UO-31 renal, with SF-295 CNS and with LOX IMVI melanoma was greater than 100 µM each time.

On to `C=C1C(=O)O[C@H]2[C@H]1CC/C(C=Nc1ccc(C(F)(F)F)cc1N)=C\CC[C@@]1(C)O[C@@H]21`, for which the GI50 with K-562 leukemia is 4.39 µM; with MOLT-4 leukemia, 3.06 µM; in the assay on NCI-H522 lung, 2430 nM; in the assay with SK-OV-3 ovarian, 16.3 µM; in the assay with UACC-62 melanoma it was 2910 nM; in the assay on KM12 colon, 13.4 µM. In addition, the GI50 was 6.9 µM with ACHN renal, 2870 nM with UO-31 renal, 13.1 µM with SF-295 CNS and 4.12 µM in the assay on LOX IMVI melanoma. For the same compound, the TGI in the assay on K-562 leukemia is 16.5 µM; in the assay with MOLT-4 leukemia, 9.67 µM; in the assay on NCI-H522 lung, 7.8 µM; in the assay with SK-OV-3 ovarian, 30 µM; in the assay on UACC-62 melanoma it was 15.6 µM; with KM12 colon it was 28.3 µM. The TGI came to 22.1 µM in the assay on ACHN renal, 19.3 µM in the assay with UO-31 renal, 26.3 µM in the assay on SF-295 CNS and 17.4 µM in the assay with LOX IMVI melanoma.

On to `CN(CCCCCl)P(=O)(OCc1ccc([N+](=O)[O-])o1)C(F)(F)c1ccc(CC(=O)N[C@@H](CC(=O)O)C(=O)N[C@@H](Cc2ccc(C(F)(F)P(=O)(OCc3ccc([N+](=O)[O-])o3)N(C)CCCCCl)cc2)C(N)=O)cc1` (stereo not given in full), for which the GI50 was 22.4 µM in the assay with K-562 leukemia; 31.4 µM in the assay on MOLT-4 leukemia; 35700 nM with NCI-H522 lung; greater than 100 µM with SK-OV-3 ovarian; 58000 nM with UACC-62 melanoma; 43 µM in the assay with KM12 colon. Further, the GI50 in the assay on ACHN renal was greater than 100 µM; with UO-31 renal, greater than 100000 nM; with SF-295 CNS, greater than 100 µM; in the assay on LOX IMVI melanoma, 28.2 µM. The TGI was 55.7 µM with K-562 leukemia; 91.2 µM in the assay on MOLT-4 leukemia; greater than 100 µM in the assay on NCI-H522 lung; greater than 100 µM in the assay on SK-OV-3 ovarian; greater than 100 µM with UACC-62 melanoma; greater than 100 µM in the assay with KM12 colon. Besides, the TGI in the assay with ACHN renal, in the assay with UO-31 renal, with SF-295 CNS and in the assay with LOX IMVI melanoma was greater than 100 µM in each case.

Consider `CCOCCc1c(O)nc(SC)[nH]c1=O`, for which the GI50 is greater than 100 µM in the assay on K-562 leukemia; greater than 100 µM in the assay with MOLT-4 leukemia; greater than 100000 nM with NCI-H522 lung; greater than 100 µM in the assay on SK-OV-3 ovarian; greater than 100000 nM with UACC-62 melanoma; greater than 100 µM in the assay on KM12 colon. Further, the GI50 with ACHN renal is greater than 100 µM; with UO-31 renal, greater than 100000 nM; in the assay on SF-295 CNS, greater than 100 µM; with LOX IMVI melanoma, greater than 100 µM. The TGI in the assay on K-562 leukemia, in the assay with MOLT-4 leukemia, in the assay with NCI-H522 lung, in the assay on SK-OV-3 ovarian, in the assay on UACC-62 melanoma and in the assay on KM12 colon was greater than 100 µM in each case. Also, the TGI with ACHN renal, in the assay on UO-31 renal, in the assay on SF-295 CNS and with LOX IMVI melanoma was greater than 100 µM throughout.

`Cc1ccc(Cl)cc1Nc1nc(C(F)(F)F)ccc1C(=O)N/N=C/c1c(Cl)cccc1Cl`: the GI50 in the assay on K-562 leukemia is 0.734 µM; with MOLT-4 leukemia it was 0.596 µM; with NCI-H522 lung, 1770 nM; with SK-OV-3 ovarian, 0.899 µM; in the assay on UACC-62 melanoma it was 925 nM; in the assay with KM12 colon, 0.542 µM. The GI50 in the assay on ACHN renal is 1.08 µM; in the assay on UO-31 renal, 1530 nM; in the assay with SF-295 CNS it was 0.556 µM; in the assay on LOX IMVI melanoma it was 0.648 µM. Further, the TGI in the assay on K-562 leukemia is greater than 32.1 µM; in the assay on MOLT-4 leukemia, 4.93 µM; with NCI-H522 lung, 5.98 µM; with SK-OV-3 ovarian it was 4.76 µM; in the assay on UACC-62 melanoma it was 4.02 µM; in the assay on KM12 colon, 9.08 µM. In addition, the TGI in the assay with ACHN renal was 6.14 µM; in the assay with UO-31 renal, 5.13 µM; in the assay on SF-295 CNS, 3.61 µM; in the assay with LOX IMVI melanoma, 5.15 µM.
